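Where inhibition never reached the appropriate level, the endpoint shown equals the highest concentration tested. Otherwise, values were interpolated linearly from a five-concentration, 48-hour dose response in 96-well plates. Here, GI50 denotes the concentration required for 50% inhibition of growth. TGI: total growth inhibition.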
Columns and labels:
Experiment in all cases: growth of human tumour cells (NCI), 48 h
HT29 colon = tested on: HT29 colon
NCI-H23 lung = tested on: NCI-H23 lung
OVCAR-4 ovarian = tested on: OVCAR-4 ovarian
OVCAR-8 ovarian = tested on: OVCAR-8 ovarian
RPMI-8226 leukemia = tested on: RPMI-8226 leukemia
RXF 393 renal = tested on: RXF 393 renal
SF-539 CNS = tested on: SF-539 CNS
UO-31 renal = tested on: UO-31 renal
MCF7 breast = tested on: MCF7 breast
SR leukemia = tested on: SR leukemia

SMILES | TGI (HT29 colon) [µM] | TGI (NCI-H23 lung) [µM] | TGI (OVCAR-4 ovarian) [µM] | TGI (OVCAR-8 ovarian) [µM] | TGI (RPMI-8226 leukemia) [µM] | TGI (RXF 393 renal) [µM] | TGI (SF-539 CNS) [µM] | TGI (UO-31 renal) [µM] | GI50 (HT29 colon) [µM] | GI50 (MCF7 breast) [µM] | TGI (MCF7 breast) [µM] | GI50 (NCI-H23 lung) [µM] | GI50 (OVCAR-4 ovarian) [µM] | GI50 (OVCAR-8 ovarian) [µM] | GI50 (RPMI-8226 leukemia) [µM] | GI50 (RXF 393 renal) [µM] | GI50 (SF-539 CNS) [µM] | GI50 (UO-31 renal) [µM] | TGI (SR leukemia) [µM] | GI50 (SR leukemia) [µM]
COc1ccc(C(=O)/C(=N/Nc2ccccc2)c2ccc(OC)cc2)cc1 | > 100 | > 100 | > 100 | > 100 | > 100 | > 100 | > 100 | > 100 | – | – | – | – | – | – | – | – | – | – | – | –
CCOC(=O)NC(=O)c1cn(CCCCCOC(=O)NCCCCCCNC(=O)OCCCCCn2cc(C(=O)NC(=O)OCC)c(=O)[nH]c2=O)c(=O)[nH]c1=O | > 100 | – | > 100 | > 100 | > 100 | > 100 | > 100 | > 100 | – | – | – | – | – | – | – | – | – | – | – | –
CC1(C)CC[C@]2(C(=O)n3ccnc3)CC[C@]3(C)[C@H](C(=O)C=C4[C@@]5(C)C=C(C#N)C(=O)C(C)(C)[C@@H]5CC[C@]43C)[C@@H]2C1 | – | 0.0786 | 0.173 | – | < 0.01 | 0.0536 | < 0.0336 | < 0.0174 | < 0.0117 | < 0.01 | > 100 | < 0.0151 | 0.0359 | < 0.01 | < 0.01 | 0.0114 | < 0.0114 | < 0.0108 | – | –
O=C1NC2OCC(O)C(O1)C2O (centres undefined) | > 100 | > 100 | > 100 | > 100 | > 100 | > 100 | > 100 | > 100 | – | – | – | – | – | – | – | – | – | – | > 100 | –
CNc1nnnn1C1OC(CO)C(O)C1O (centres undefined) | > 100 | – | – | > 100 | > 100 | > 100 | > 100 | > 100 | – | – | – | – | – | – | – | – | – | – | – | –
CC1(C)CC(=O)C(CC(C(=O)C(=O)Nc2cc(C(F)(F)F)ccc2Cl)C(=O)c2ccco2)C(=O)C1 (centres undefined) | > 100 | > 100 | > 100 | > 100 | > 100 | – | > 100 | > 100 | – | – | > 100 | – | – | – | – | – | – | – | – | –
O=C1CSC(=S)N1c1ccc(F)cc1F | > 100 | > 100 | > 100 | > 100 | 66.4 | > 100 | > 100 | > 100 | – | – | 51.5 | – | – | – | – | – | – | – | – | –
O=C1OC(c2ccccc2)C2CC3CC4(CCC3CN12)OCCO4 (centres undefined) | > 100 | > 100 | > 100 | > 100 | > 100 | > 100 | > 100 | > 100 | – | – | – | – | – | – | – | – | – | – | > 100 | –
O=C(CC1(O)C(=O)Nc2c(Cl)cccc21)c1ccccc1 (centres undefined) | > 100 | > 100 | > 100 | > 100 | > 100 | > 100 | – | > 100 | – | – | – | – | – | – | – | – | – | – | – | –
O=C1C(c2ccc([N+](=O)[O-])cc2)=[N+]([O-])c2ccccc21 | > 100 | 63.4 | 21.7 | 16.4 | > 100 | 60.4 | > 100 | 67 | – | – | – | – | – | – | – | – | – | – | 62.3 | –
C=CCCC(O)c1ccc(C(O)CCCCCCCCCCCC)o1 (centres undefined) | > 100 | 34.7 | 92.9 | 30.3 | > 100 | 33.2 | 37.5 | 41.4 | 32.3 | 82.2 | > 100 | 19.3 | 30.9 | 13.5 | 27.1 | 16 | 19.7 | 18.7 | – | –
Cc1cc2c(cc1C)N1Cc3c(ccc(C)c3C)N(C2)C1 (tested in a mixture with another compound) | > 100 | > 100 | > 100 | > 100 | > 100 | > 100 | > 100 | – | – | – | – | – | – | – | – | – | – | – | – | –
COc1ccc(C(=O)C(c2ccc(OC)cc2)C2C(=O)Oc3ccccc32)cc1 (centres undefined) | > 100 | > 100 | > 100 | > 100 | > 100 | > 100 | > 100 | 51.1 | > 100 | – | – | > 100 | > 100 | > 100 | > 100 | > 100 | > 100 | – | > 100 | > 100
N#Cc1ccc(/C=N\N2C(=O)c3ccccc3C2=O)cc1 | > 100 | > 100 | > 100 | > 100 | > 100 | > 100 | > 100 | > 100 | – | – | – | – | – | – | – | – | – | – | > 100 | –
O=c1oc2c3ccc4ccccc4c3n(CCN3CCOCC3)c2c2ccccc12 | > 100 | – | > 100 | > 100 | > 100 | – | > 100 | > 100 | – | – | – | – | – | – | – | – | – | – | 58.3 | –
O=c1cc2n(c(=O)[nH]1)C1OC(C(O)C1O)[C@H]2CCO (some centres undefined) | > 100 | > 100 | > 100 | > 100 | – | > 100 | > 100 | > 100 | – | – | – | – | – | – | – | – | – | – | > 100 | –

— PubChem BioAssay (NCI)
